The target of experiment [1] is T1, hTLR8 (human Toll-like receptor 8) (Homo sapiens, UniProt Q9NR97).
T1 construct: host or cells: HEK-Blue hTLR8 (HEK293-derived reporter cells)
T1 sequence (Q9NR97 27-1041): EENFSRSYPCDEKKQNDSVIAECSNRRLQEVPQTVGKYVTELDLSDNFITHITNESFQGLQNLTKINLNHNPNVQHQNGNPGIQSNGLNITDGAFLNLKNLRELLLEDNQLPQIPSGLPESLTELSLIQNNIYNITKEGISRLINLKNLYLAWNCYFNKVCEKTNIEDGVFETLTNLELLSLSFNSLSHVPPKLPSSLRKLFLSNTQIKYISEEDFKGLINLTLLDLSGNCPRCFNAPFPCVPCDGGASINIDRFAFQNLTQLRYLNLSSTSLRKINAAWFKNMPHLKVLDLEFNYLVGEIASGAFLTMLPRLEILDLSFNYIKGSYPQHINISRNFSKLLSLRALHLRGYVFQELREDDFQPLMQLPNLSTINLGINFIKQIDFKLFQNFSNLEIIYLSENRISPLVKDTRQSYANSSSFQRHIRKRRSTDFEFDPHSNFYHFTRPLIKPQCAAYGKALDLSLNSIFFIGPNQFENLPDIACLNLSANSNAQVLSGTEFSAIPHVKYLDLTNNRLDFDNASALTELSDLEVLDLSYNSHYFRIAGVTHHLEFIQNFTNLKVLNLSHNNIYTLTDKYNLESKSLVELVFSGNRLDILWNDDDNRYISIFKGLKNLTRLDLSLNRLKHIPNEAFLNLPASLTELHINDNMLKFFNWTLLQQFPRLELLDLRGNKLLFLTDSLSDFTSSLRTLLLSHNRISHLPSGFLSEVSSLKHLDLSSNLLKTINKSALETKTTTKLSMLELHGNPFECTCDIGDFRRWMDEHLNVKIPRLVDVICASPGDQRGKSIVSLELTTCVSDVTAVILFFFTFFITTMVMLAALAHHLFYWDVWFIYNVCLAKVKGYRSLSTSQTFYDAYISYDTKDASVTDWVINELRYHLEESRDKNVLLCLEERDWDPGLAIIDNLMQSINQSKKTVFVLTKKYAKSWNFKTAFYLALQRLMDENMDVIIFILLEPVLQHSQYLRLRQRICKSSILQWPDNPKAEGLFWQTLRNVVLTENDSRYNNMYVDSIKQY
Kind of experiment: hTLR8 cell assay (HEK-Blue hTLR8 reporter cells). The note with it: 24 hours, OD 650 nm. The experiment is classed as cell-based. How it is done:
(§1) The payload compounds of Formula (II′) were assayed to evaluate their agonistic activity on hTLR7 (human Toll-like receptor 7) and hTLR8 (human Toll-like receptor 8). Reporter cells lines (HEK-Blue hTLR7 and HEK-Blue hTLR8) were obtained from InvivoGen. Cells were cryopreserved in liquid nitrogen per supplier's instruction. Upon test, the cells were thawed, passaged and cultured in the growth media of DMEM supplemented with 10% fetal bovine serum, 1×NEAA, 1 mM Pyruvate, 2 mM glutamine, […] in the presence of the following antibiotics, as shown as Table 1. Test compounds (at desired concentrations diluted) were added to the 96-well assay plate, 0.5 μL per well. Reporter cells were harvested from the tissue culture flasks by incubation in PBS at 37° C. for two minutes after the media in the flask is removed and cells rinsed with PBS. Cells were counted and diluted in the HEK-Blue Detection media at 50000 cells/mL and incubated for 24 hours at 37° C., in a 5% CO2 humidified incubator. Then 20 μL of cell supernatant were added to the assay plate containing the 180 µL of QUANTI-Blue, incubated for 1 hour at 37° C. Optical density at 650 nm was analyzed using an Envision (Perkin Elmer) plate reader.

The target of experiment [2] is T2, hTLR7 (human Toll-like receptor 7) (Homo sapiens, UniProt Q9NYK1).
T2 construct: host or cells: HEK-Blue hTLR7 (HEK293-derived reporter cells)
T2 sequence (Q9NYK1 27-1049): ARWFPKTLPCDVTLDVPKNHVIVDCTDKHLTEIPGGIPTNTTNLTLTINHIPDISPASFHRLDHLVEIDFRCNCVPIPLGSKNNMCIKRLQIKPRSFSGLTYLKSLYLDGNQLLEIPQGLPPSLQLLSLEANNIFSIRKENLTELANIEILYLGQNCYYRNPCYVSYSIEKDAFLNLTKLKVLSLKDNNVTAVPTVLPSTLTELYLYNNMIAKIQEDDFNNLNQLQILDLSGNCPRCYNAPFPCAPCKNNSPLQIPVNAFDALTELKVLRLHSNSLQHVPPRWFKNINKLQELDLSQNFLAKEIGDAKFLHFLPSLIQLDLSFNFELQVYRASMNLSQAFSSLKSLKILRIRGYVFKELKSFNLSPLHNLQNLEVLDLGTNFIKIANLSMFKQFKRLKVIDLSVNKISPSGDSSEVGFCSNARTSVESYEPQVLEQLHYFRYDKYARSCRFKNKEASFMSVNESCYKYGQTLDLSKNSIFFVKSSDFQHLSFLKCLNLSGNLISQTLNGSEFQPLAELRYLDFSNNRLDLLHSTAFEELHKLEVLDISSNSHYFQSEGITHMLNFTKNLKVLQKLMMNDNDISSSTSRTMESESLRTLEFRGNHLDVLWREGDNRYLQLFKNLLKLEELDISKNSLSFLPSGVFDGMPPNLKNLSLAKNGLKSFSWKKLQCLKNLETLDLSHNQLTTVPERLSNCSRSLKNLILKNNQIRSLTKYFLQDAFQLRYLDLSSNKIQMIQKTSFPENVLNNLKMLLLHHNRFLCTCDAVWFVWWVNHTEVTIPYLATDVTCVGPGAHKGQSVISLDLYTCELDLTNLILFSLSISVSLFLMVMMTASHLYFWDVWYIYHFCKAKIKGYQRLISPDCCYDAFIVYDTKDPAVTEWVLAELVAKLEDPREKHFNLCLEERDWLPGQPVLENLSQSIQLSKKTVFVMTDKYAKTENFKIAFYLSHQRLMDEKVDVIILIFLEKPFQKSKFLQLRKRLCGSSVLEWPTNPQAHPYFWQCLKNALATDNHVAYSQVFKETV
Kind of experiment: hTLR7 cell assay (HEK-Blue hTLR7 reporter cells). The experiment is classed as cell-based. To be noted: 24 hours, OD 650 nm. Here is the method:
as §1

Molecules are shown by their SMILES.

As to `CCOCc1nc2c(N)nc3cc(Cc4ccc(CCN)cc4)ccc3c2n1CC(C)(C)OCCO` [Compound 72, 2-((1-(4-amino-7-(4-(2-aminoethyl)benzyl)-2-(ethoxymethyl)-1H-imidazo[4,5-c]quinolin-1-yl)-2-methylpropan-2-yl)oxy)ethan-1-ol], the figures for the EC50 in experiment [1] and in experiment [2] were more than 20 µM and less than 1 µM, respectively.
The like results for `CCCC(C)c1nc2c(N)nc3cc(Cc4ccccc4)ccc3c2n1CC(C)(C)OCCN` (racemic) [Compound 28, 1-(2-(2-aminoethoxy)-2-methylpropyl)-7-benzyl-2-(pentan-2-yl)-1H-imidazo[4,5-c]quinolin-4-amine] were, in that order, less than 5 µM and more than 10 µM.
Take `CCCC(C)c1nc2c(N)nc3cc(Cc4ccc(CCN)cc4)ccc3c2n1CC(C)(C)OC` (stereo not drawn) [Compound 48, 7-(4-(2-aminoethyl)benzyl)-1-(2-methoxy-2-methylpropyl)-2-(pentan-2-yl)-1H-imidazo[4,5-c]quinolin-4-amine]: the concentration giving a half-maximal response (EC50) in experiment [1] was 5 to 20 µM; in experiment [2] it was more than 10 µM.
As to `CCOCc1nc2c(N)nc3cc(Cc4ccc(CCN5CCCC5)cc4)ccc3c2n1CC(C)(C)OCCN` [Compound 25, 1-(2-(2-aminoethoxy)-2-methylpropyl)-2-(ethoxymethyl)-7-(4-(2-(pyrrolidin-1-yl)ethyl)benzyl)-1H-imidazo[4,5-c]quinolin-4-amine], the values for the EC50 in experiment [1] and in experiment [2] were more than 20 µM and more than 10 µM, respectively.
The matching figures for `CCOCc1nc2c(N)nc3cc(Cc4ccccc4)ccc3c2n1Cc1ccc(CN)cc1` [Compound 43]: 5 to 20 µM and less than 1 µM.
The like results for `CCOCc1nc2c(N)nc3cc(Cc4ccc(CC(N)=O)cc4)ccc3c2n1CCNS(C)(=O)=O` [Compound 35, 2-(4-((4-amino-2-(ethoxymethyl)-1-(2-(methylsulfonamido)ethyl)-1H-imidazo[4,5-c]quinolin-7-yl)methyl)phenyl)acetamide] were, in that order, more than 20 µM and 1 to 10 µM.
The like results for `CCOCc1nc2c(N)nc3cc(Cc4ccc(NC(=O)NCCN)cc4)ccc3c2n1CC(C)(C)O` [Compound 7, 1-(4-((4-amino-2-(ethoxymethyl)-1-(2-hydroxy-2-methylpropyl)-1H-imidazo[4,5-c]quinolin-7-yl)methyl)phenyl)-3-(2-aminoethyl)urea] were, in that order, 5 to 20 µM and more than 10 µM.
For the compound `CCOCc1nc2c(N)nc3cc(Cc4ccc(CCN)cc4)ccc3c2n1CC(C)(C)OCCNC(=O)C(C)(C)N` [Compound 21], the values for the EC50 in experiment [1] and in experiment [2] were more than 20 µM and less than 1 µM, respectively.
Consider `CCOCc1nc2c(N)nc3cc(Cc4ccc(CCN)cc4)ccc3c2n1CC(C)(C)OCCN1CCCC1` [Compound 26, 7-(4-(2-aminoethyl)benzyl)-2-(ethoxymethyl)-1-(2-methyl-2-(2-(pyrrolidin-1-yl)ethoxy)propyl)-1H-imidazo[4,5-c]quinolin-4-amine], for which the figures for the 50% effective concentration (EC50) in experiment [1] and in experiment [2] were more than 20 µM and 1 to 10 µM, respectively.
As for `CCCC(C)c1nc2c(N)nc3cc(Cc4ccc(CCN)cc4)ccc3c2n1CC(C)(C)O` (stereo not drawn) [Compound 8, 1-(4-amino-7-(4-(2-aminoethyl)benzyl)-2-(pentan-2-yl)-1H-imidazo[4,5-c]quinolin-1-yl)-2-methylpropan-2-ol], the values for the EC50 in experiment [1] and in experiment [2] were less than 5 µM and 1 to 10 µM, respectively.
The like results for `CCOCc1nc2c(N)nc3cc(Cc4ccc(CN)cc4)ccc3c2n1CC(C)(C)O` [Compound 1, 1-(4-amino-7-(4-(aminomethyl)benzyl)-2-(ethoxymethyl)-1H-imidazo[4,5-c]quinolin-1-yl)-2-methylpropan-2-ol] were, in that order, more than 20 µM and more than 10 µM.
With `CCOCc1nc2c(N)nc3cc(Cc4ccccc4)ccc3c2n1CC1CC(CN)C1` (stereo not drawn) [Compound 40, 1-((3-(aminomethyl)cyclobutyl)methyl)-7-benzyl-2-(ethoxymethyl)-1H-imidazo[4,5-c]quinolin-4-amine], the EC50 is more than 20 µM in experiment [1] and 1 to 10 µM in experiment [2].
The matching figures for `CCOCc1nc2c(N)nc3cc(Cc4ccccc4)ccc3c2n1CCC(O)C(F)(F)F` (stereo not drawn) [Compound 46, 4-(4-amino-7-benzyl-2-(ethoxymethyl)-1H-imidazo[4,5-c]quinolin-1-yl)-1,1,1-trifluorobutan-2-ol]: more than 20 µM and more than 10 µM.
The matching figures for `CCCC(C)c1nc2c(N)nc3cc(Cc4ccc(CCCN)cc4)ccc3c2n1CC(C)(C)O` (stereo not drawn) [Compound 11, 1-(4-amino-7-(4-(3-aminopropyl)benzyl)-2-(pentan-2-yl)-1H-imidazo[4,5-c]quinolin-1-yl)-2-methylpropan-2-ol]: less than 5 µM and 1 to 10 µM.
The like results for `CCCC(C)c1nc2c(N)nc3cc(Cc4cccc(CN)c4)ccc3c2n1CC(C)(C)O` (stereo not drawn) [Compound 12, 1-(4-amino-7-(3-(aminomethyl)benzyl)-2-(pentan-2-yl)-1H-imidazo[4,5-c]quinolin-1-yl)-2-methylpropan-2-ol] were, in that order, less than 5 µM and 1 to 10 µM.
As to `CCC[C@H](C)c1nc2c(N)nc3cc(Cc4ccccc4)ccc3c2n1CC(C)(C)OCCN` [Compound 29, (S)-1-(2-(2-aminoethoxy)-2-methylpropyl)-7-benzyl-2-(pentan-2-yl)-1H-imidazo[4,5-c]quinolin-4-amine], the EC50 was more than 20 µM in experiment [1] and more than 10 µM in experiment [2].
The matching figures for `CCOCc1nc2c(N)nc3cc(Cc4ccccc4)ccc3c2n1CC(C)(C)N` [Compound 38, 1-(2-amino-2-methylpropyl)-7-benzyl-2-(ethoxymethyl)-1H-imidazo[4,5-c]quinolin-4-amine]: more than 20 µM and more than 10 µM.
The like results for `CCOCc1nc2c(N)nc3cc(Cc4ccc(C(=O)NCCN)cc4)ccc3c2n1CC(C)(C)O` [Compound 6, 4-((4-amino-2-(ethoxymethyl)-1-(2-hydroxy-2-methylpropyl)-1H-imidazo[4,5-c]quinolin-7-yl)methyl)-N-(2-aminoethyl)benzamide] were, in that order, more than 20 µM and more than 10 µM.

For the origin of these results see patent US20250325687A1, “CONJUGATE COMPRISING TOLL-LIKE RECEPTOR AGONIST” (MABSOFT THERAPEUTICS (SHANGHAI) CO., LTD., priority 2022, published 2025).
